Measurements from PubChem BioAssay AID651570 (Sanford-Burnham Center for Chemical Genomics, 2012).
Activity calls are given as the source filed them.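 How the source made its calls: active means compounds that block the Wnt3a luciferase reporter with IC50 at or below 20 µM, flagged as nonspecific; inactive means the rest.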

System: Wnt-LIGHT cells, Wnt3a-conditioned, luciferase reporter luminescence
Experiment: antagonism of Wnt3a pathway luciferase reporter – Wnt-LIGHT cells, luminescence, selectivity assay for Gli-SUFU antagonist project, dose response (AID 651570)

IC50	SMILES
> 50 µM (inactive)	O=C(Nc1ccccc1)C1=C[C@H](C2CCCCC2)C[C@H](OCCCCO)O1
> 50 µM (inactive)	O=C(C[C@H]1C/C=C\C[C@H](NC(=O)OCC2c3ccccc3-c3ccccc32)C(=O)OC[C@@H]2CCCN2C1=O)N[C@H](CO)Cc1ccccc1
